Laboratory results from patent publication US12491185B2, “Inhibitors of mPTP” (NRG Therapeutics Ltd, priority 2023, dated 2025).

Tested on: mPTP
Assay: mPTP activity (Ca2+ retention) assay in isolated rat liver mitochondria
Type: biochemical
Details: examples tested by different contract research organisations, believed comparable
Source text: Pharmacological inhibition or modulation of the mPTP can be measured in well characterised ‘Ca^2+ retention’ assays performed in isolated mitochondria. In vitro, isolated mitochondria rapidly sequester exogenous Ca^2+ until the intramitochondrial Ca^2+ concentration reaches the threshold for mPTP activation. Once the pore is activated, mitochondrial integrity is compromised and the stored Ca^2+ is released. The distribution of Ca^2+ between extra- and intra-mitochondrial compartments can be measured in real time with the use of membrane-impermeant Ca^2+ sensitive fluorescent dyes. Depending on the configuration of the assay, inhibition or modulation of the mPTP either delays the opening of the pore or increases the concentration of Ca^2+ required to induce mPTP opening.
MPTP activity was measured in mitochondria freshly isolated from female Sprague Dawley (250 to 300 gram) rat livers using the following method. Cervical dislocation was performed on the rat. The liver was then perfused in-situ with −40 ml cold Dulbecco's Phosphate Buffered Saline (DPBS) prior to dissection and transferred into 30 ml Isolation Buffer (250 mM Sucrose, 10 mM KCl, 1 mM EGTA, 1 mM EDTA, 25 mM HEPES, adjusted to pH 7.5 with 1M NaOH). Each lobe of the liver was then removed from the buffer, minced using tweezers and a scalpel into −5 mm pieces then transferred into a 50 ml Potterton dounce homogenization tube on ice containing 30 ml ice-cold centrifugation buffer (300 mM Trehalose, 25 mM HEPES, 1 mM EGTA, 1 mM EDTA, 10 mM KCl, adjusted to pH 7.5 with 1M NaOH and supplemented with 0.1% bovine serum albumin (BSA) and complete protease inhibitor cocktail (one tablet of inhibitor per 50 mls of buffer). Homogenisation was carried out using a teflon pestle at 1800 rpm. The slurry was centrifuged at 800 g for 10 min at 4° C., then the supernatant centrifuged at 10,000 g for 10 min. The pellet was washed once with FLIPR assay buffer (75 mM Mannitol, 25 mM Sucrose, 5 mM Potassium Phosphate Monobasic, 20 mM Tris base, 100 mM KCl, 0.1% BSA adjusted to pH 7.4 with 5M HCl) centrifuged again, then resuspended in FLIPR assay buffer to a concentration of 8.8 mg/ml protein.
Tested compounds (10 mM stock in DMSO) were serially diluted in DMSO in half log steps to generate 10 test concentrations (final concentrations in assay 30 μM to 1 nM). An intermediate dilution of 5 μl DMSO samples into 247 μl FLIPR assay buffer was carried out prior to transfer of 5 μl into duplicate wells of a 384 well polypropylene assay plate. Control wells were 0.5% (v/v) DMSO and 5 μM cyclosporin A.
A stock mitochondria/Fluo5N assay solution was prepared in 5.6 ml FLIPR assay buffer (at RT) supplemented with succinate disodium salt (10 mM), rotenone (1 μM), Fluo5N pentapotassium salt (2 μM) and 1 ml mitochondria suspension, then transferred (15 μl) into the assay plate containing test compounds and incubated for 10 min at RT. Assay plates were processed for fluorescence detection on either a FLIPR Tetra (Molecular Devices) or CLARIOstar (BMG) plate reader. For kinetic fluorescence detection on the FLIPR, dye fluorescence was measured every 3 sec for a total of 10 min. After 12 sec, a 2.5 μl bolus of CaCl2 (75 μM) was added from a source plate containing 675 μM CaCl2 in FLIPR assay buffer. Alternatively, the 2.5 μl addition of CaCl2 was performed using a Viaflow 384, plates were incubated at RT for 10 min, and dye fluorescence measured after 10 min on the CLARIOstar plate reader. pIC50 values for tested compounds were calculated using the fluorescence value collected at the 10 min timepoint on either plate reader, with % inhibition calculated using the DMSO control and cyclosporin A values as 0 and 100% respectively.

Structure (SMILES)	mPTP Rat liver pIC50
CC(NC(=O)c1nn(C)c(=O)[nH]1)C(C)(C)Cc1ccccc1 (single isomer, unassigned) [Example 39A, N-(3,3-dimethyl-4-phenylbutan-2-yl)-1-methyl-5-oxo-4,5-dihydro-1H-1,2,4-triazole-3-carboxamide]	<4.57
CC(C)[C@@H](CNC(=O)c1nn(C)c(=O)[nH]1)Cc1ccccc1 (single isomer, unassigned) [Example 46A]	4.71
O=C(NCC1(Cc2ccccc2)CCC1)c1ccnc(=O)[nH]1 [Example 6, N-((1-benzylcyclobutyl)methyl)-2-oxo-2,3-dihydropyrimidine-4-carboxamide]	5.13
CC(C)C(CNC(=O)c1nn(C)c(=O)[nH]1)Cc1ccccc1 (stereo not drawn) [Example 45, N-(2-benzyl-3-methylbutyl)-1-methyl-5-oxo-4,5-dihydro-1H-1,2,4-triazole-3-carboxamide]	6.50
CCCC(CNC(=O)c1nn(C)c(=O)[nH]1)Cc1ccccc1 (stereo not drawn) [Example 55, N-(2-benzylpentyl)-1-methyl-5-oxo-4,5-dihydro-1H-1,2,4-triazole-3-carboxamide]	5.44
Cn1nc(C(=O)NCC2(C)Cc3ccccc3C2)[nH]c1=O [Example 58]	5.03
Cn1nc(C(=O)NCCC(C)(C)c2ccccc2)[nH]c1=O [Example 59]	5.06
Cn1nc(C(=O)NCC2CCc3ccccc3C2)[nH]c1=O (stereo not drawn) [Example 60]	5.10
COc1ccccc1CC1(CNC(=O)c2nn(C)c(=O)[nH]2)CCC1 [Example 61, N-((1-(2-methoxybenzyl)cyclobutyl)methyl)-1-methyl-5-oxo-4,5-dihydro-1H-1,2,4-triazole-3-carboxamide]	4.99
Cn1cc(C(=O)NCC2(Cc3ccccc3)CCC2)[nH]c1=O [Example 63, N-((1-benzylcyclobutyl)methyl)-1-methyl-2-oxo-2,3-dihydro-1H-imidazole-4-carboxamide]	4.65
O=C1COCC(C(=O)NCC2(Cc3ccccc3)CCC2)N1 (stereo not drawn) [Example 65, N-((1-benzylcyclobutyl)methyl)-5-oxomorpholine-3-carboxamide]	<4.52

Further lines, results first:

mPTP Rat liver pIC50	Structure (SMILES)
<4.52	O=C(NCC1(Cc2ccccc2)CCC1)c1nc2ccccc2c(=O)[nH]1 [Example 66, N-((1-benzylcyclobutyl)methyl)-4-oxo-3,4-dihydro-quinazoline-2-carboxamide]
<4.52	Cn1nc(C(=O)NCC(C)(C)Cc2ccccc2)ccc1=O [Example 67, N-(2,2-dimethyl-3-phenylpropyl)-1-methyl-6-oxo-1,6-dihydro-pyridazine-3-carboxamide]
<4.52	Cn1c(=O)[nH]cc(C(=O)NCC(C)(C)Cc2ccccc2)c1=O [Example 68, N-(2,2-dimethyl-3-phenylpropyl)-3-methyl-2,4-dioxo-1,2,3,4-tetrahydro-pyrimidine-5-carboxamide]
<4.52	CC(C)(CNC(=O)c1cc(C(F)(F)F)n[nH]1)Cc1ccccc1 [Example 69, N-(2,2-dimethyl-3-phenylpropyl)-3-(trifluoromethyl)-1H-pyrazole-5-carboxamide]
4.85	Cn1nc(C(=O)NCC(CO)Cc2ccccc2)[nH]c1=O (stereo not drawn) [Example 70, N-(2-benzyl-3-hydroxypropyl)-1-methyl-5-oxo-4,5-dihydro-1H-1,2,4-triazole-3-carboxamide]
<4.52	Cn1nc(C(=O)NC(CCc2ccccc2)CC(F)(F)F)[nH]c1=O (stereo not drawn) [Example 71, 1-methyl-5-oxo-N-(1,1,1-trifluoro-5-phenylpentan-3-yl)-4,5-dihydro-1H-1,2,4-triazole-3-carboxamide]
4.67	CN(CC(C)(C)Cc1ccccc1)C(=O)c1nn(C)c(=O)[nH]1 [Example 72, N-(2,2-dimethyl-3-phenylpropyl)-N,1-dimethyl-5-oxo-4,5-dihydro-1H-1,2,4-triazole-3-carboxamide]
